From patent publication US9732226B2, “Azo compound, ink containing azo compound, and display and electronic paper containing the ink” (MITSUBISHI CHEMICAL CORPORATION, priority 2012, dated 2017)
In brackets after ≈: the same amount, converted by molar mass.

How the values were obtained:
Assay type in all cases: physicochemical
[1] = Relative permittivity of solvent; conditions: 22° C., measurement frequency 1 kHz
Protocol: (§1) <Method for Measurement of Relative Permittivity of Solvent> The solvent was sandwiched between opposed parallel-plate ITO electrode-attached glass substrates having an electrode spacing of 50 μm, and using LCR Meter ZN2371 (manufactured by NF Corporation), the equivalent parallel capacitance thereof was measured at a measurement temperature of 22° C. and at a frequency of 1 kHz, given a test signal voltage of 5 V. Through calculation according to the following equation, the relative permittivity of the solvent was determined. Relative Permittivity=(equivalent parallel capacitance)×(electrode spacing)/(electrode area)/vacuum permittivity(ε0) <Method for Measurement of Solubility of Solvent in Water>

[2] = Solubility of solvent in water; conditions: pure water, thermodynamic from solid, 25° C.
Protocol: as §1, with “The” for “<Method for Measurement of Relative Permittivity of Solvent> The”
30 g of pure water and 8 g of the solvent were put into a 110 ml-vial, and shaken in a thermostat bath at 25° C. at 200 shake/min for 4 hours. After thus shaken, the liquid was centrifuged (6000×g, 5 minutes), the aqueous layer was sampled, and the concentration of the dissolved solvent was quantified through gas chromatography.
For a mixed solvent comprising two or more different types of solvents, the solubility in water was determined by multiplying the solubility in water of each solvent constituting the mixed solvent by the molar fraction of each solvent, followed by totaling the resultant data. […]

[3] = Solubility C in n-decane at 5° C. (saturated solution, absorbance); conditions: for solubility at 24 h: organic solvent or mixture, thermodynamic from solid, saturation solubility in n-decane at 5° C.; for ε · C / εC: product of ε and solubility C in n-decane at 5° C.; for C: solubility in n-decane at 5° C.
Protocol: <Method for Measurement of Solubility C>
The solubility C of Example Compounds 1 to 4 and Comparative Example Compound in n-decane solution was measured as follows.
The compound was added to the solvent until the undissolved residue remained, and ultrasonically treated at 30° C. for 30 minutes. After left at 5° C. for 24 hours, this was centrifuged and filtered through a 0.1 μm-filter using an ultracompact centrifuge (centrifugal force, 5200×g). The resultant saturated solution was diluted to have a suitable concentration, and using a quartz cell having an optical length of 10 mm, the absorption spectrum thereof was measured with Hitachi Spectrophotometer U-4100. From the relationship between the absorbance at the absorption maximum wavelength λmax (nm) and the previously-determined molar absorbance coefficient ε([…]) thereof, the concentration of each compound was determined, and the solubility C (mol·L^−1) at 5° C. and εC (cm^−1) thereof were calculated.

[4] = Absorption spectrum of n-decane solution (absorption maximum wavelength, molar absorbance coefficient, color); conditions: for Maximum Absorption Wavelength: 1 mg in 100 ml n-decane, quartz cell; for Color Tone: color of the solution of the compound in n-decane; for ε (molar absorbance coefficient) / ε / λmax: n-decane solution; for ε (molar absorbance coefficient): at absorption maximum wavelength; for ε / λmax: same manner as for Example Compound 1
Protocol: <Method for Measurement of Absorption Maximum Wavelength λMax, Molar Absorbance Coefficient ε>
One mg of each of Example Compounds 1 to 4 and Comparative Example Compound was dissolved in 100 ml of n-decane solution to prepare a solution thereof, and using a quartz cell, the absorption spectrum thereof was measured with Hitachi Spectrophotometer U-4100. The resultant spectrum of the compound gave the absorption maximum wavelength λmax (nm) and the molar absorbance coefficient ε(L·mol^−1·cm^−1) thereof.

| Structure (SMILES) | relative permittivity [1] | solubility at 4 h [2] [µg/mL] | solubility at 24 h [3] [mM] | ε · C [3] | Maximum Absorption Wavelength [4] [nm] | Color Tone [4] | ε (molar absorbance coefficient) [4] | εC [3] [cm⁻¹] | C [3] [mol/L] | ε [4] [L/mol/cm] | λmax [4] [nm] |
| --- | --- | --- | --- | --- | --- | --- | --- | --- | --- | --- | --- |
| CCCCC(CC)CNc1ccc(NCC(CC)CCCC)c2c1C(=O)c1ccc(C(=O)OCC(C)C)cc1C2=O (stereo not drawn) [Blue Compound A, reference compound] |  |  |  |  |  |  |  | 3200 | 0.170 | 19000 | 668 |
| CCCCC(CC)COC(=O)c1cc(C#N)c(N=Nc2ccc(N(CC(CC)CCCC)CC(CC)CCCC)cc2NC(=O)CC)c(C#N)c1 (stereo not drawn) [Example Compound 2] |  |  | 160 (≈ 112 mg/mL) | 13,000 cm^−1 | 591 | violet | 80,000 L · mol^−1 · cm^−1 |  |  |  |  |
| CCCCC(CC)CN(CC(CC)CCCC)c1ccc(N=Nc2c(C#N)cc(C(F)(F)F)cc2C#N)c(NC(C)=O)c1 (stereo not drawn) [Example Compound 1] |  |  | 20 (≈ 11.9 mg/mL) | 1,600 cm^−1 | 584 | violet | 80,000 L · mol^−1 · cm^−1 |  |  |  |  |
| C=CCn1c(N=Nc2ccc(N(CCC)CCC)cc2NC(C)=O)nc(C#N)c1C#N [Comparative Example Compound, reference compound] |  |  | ≤ 0.01 | 10 or less cm^−1 | 512 | red | 34,000 L · mol^−1 · cm^−1 |  |  |  |  |

Further lines, results first:

| relative permittivity [1] | solubility at 4 h [2] [µg/mL] | solubility at 24 h [3] [mM] | ε · C [3] | Maximum Absorption Wavelength [4] [nm] | Color Tone [4] | ε (molar absorbance coefficient) [4] | εC [3] [cm⁻¹] | C [3] [mol/L] | ε [4] [L/mol/cm] | λmax [4] [nm] | Structure (SMILES) |
| --- | --- | --- | --- | --- | --- | --- | --- | --- | --- | --- | --- |
| 2.0 | ≤ 1 |  |  |  |  |  |  |  |  |  | CCCCCCCCCC [n-decane] |
|  |  | 350 (≈ 224 mg/mL) | 26,000 cm^−1 | 585 | violet | 75,000 L · mol^−1 · cm^−1 |  |  |  |  | CCCCC(=O)Nc1cc(N(CC(CC)CCCC)CC(CC)CCCC)ccc1N=Nc1c(C#N)cc(C(F)(F)F)cc1C#N (stereo not drawn) [Example Compound 3] |
|  |  | 75 (≈ 51.4 mg/mL) | 6,000 cm^−1 | 590 | violet | 80,000 L · mol^−1 · cm^−1 |  |  |  |  | CCCCC(CC)COC(=O)c1cc(C#N)c(N=Nc2ccc(N(CC(CC)CCCC)CC(CC)CCCC)cc2NC(C)=O)c(C#N)c1 (stereo not drawn) [Example Compound 4] |
|  |  |  |  |  |  |  | 3900 | 0.086 | 4600 | 530 | CCCCC(CC)CN(CC(CC)CCCC)c1ccc(N=Nc2snc(CC)c2C#N)c(C)c1 (stereo not drawn) [Red Compound A] |
|  |  |  |  |  |  |  | 1900 | 0.076 | 25000 | 417 | CCCCc1nn(C(C)(C)C)c(O)c1N=Nc1ccc(N=Nc2ccccc2)cc1 [Yellow Compound A, reference compound] |
